# System: 521955-158-R6-J3-PDC complex spheroid growth, % test/control
# Assay: Anticancer human tumor 521955-158-R6-J3-PDC patient-derived pancreatic carcinoma cell line growth inhibition [Asc]
# Settings: for IC50: curve of first compound; for viability, T/C: stronger effect = lower value
# Procedure, shortened: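 Stromal components (HUVEC and hMSC) are co-assembled with the cancer cells into multicellular spheroids. Drugs are then added singly or paired, at concentrations falling by half-log increments from a clinically achievable maximum, capped at 10 microM without known Cmax.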
# 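Also: spheroids exposed to compounds for 7 days.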
# 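For viability, T/C in this document: 100% = DMSO vehicle control wells.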
smiles,measurement,setting,value
NC1CCC(NC2CC2c2ccccc2)CC1 (stereo unspecified) + CNC(C)C(=O)NC1CN(S(=O)(=O)c2cccc(S(=O)(=O)N3CCC4CCC(C(=O)NC(c5ccccc5)c5ccccc5)N4C(=O)C(NC(=O)C(C)NC)C3)c2)CCC2CCC(C(=O)NC(c3ccccc3)c3ccccc3)N2C1=O,IC50,second compound 0.00316 µM,> 100 nM
same,IC50,second compound 0.01 µM,> 100 nM
same,IC50,second compound 0.0316 µM,> 100 nM
same,IC50,second compound 0.1 µM,> 100 nM
same,IC50,second compound 0.316 µM,> 100 nM
same,IC50,second compound 1 µM,> 100 nM
same,"viability, T/C","second compound 0.00316 µM, first compound 0.000316 µM",86%
same,"viability, T/C","second compound 0.00316 µM, first compound 0.001 µM",98.8%
same,"viability, T/C","second compound 0.00316 µM, first compound 0.00316 µM",95.5%
same,"viability, T/C","second compound 0.00316 µM, first compound 0.01 µM",92.6%
same,"viability, T/C","second compound 0.00316 µM, first compound 0.0316 µM",91.1%
same,"viability, T/C","second compound 0.00316 µM, first compound 0.1 µM",82.1%
same,"viability, T/C","second compound 0.01 µM, first compound 0.000316 µM",94%
same,"viability, T/C","second compound 0.01 µM, first compound 0.001 µM",85.2%
same,"viability, T/C","second compound 0.01 µM, first compound 0.00316 µM",77.6%
same,"viability, T/C","second compound 0.01 µM, first compound 0.01 µM",93%
same,"viability, T/C","second compound 0.01 µM, first compound 0.0316 µM",91.4%
same,"viability, T/C","second compound 0.01 µM, first compound 0.1 µM",82.3%
same,"viability, T/C","second compound 0.0316 µM, first compound 0.000316 µM",98.1%
same,"viability, T/C","second compound 0.0316 µM, first compound 0.001 µM",93.4%
same,"viability, T/C","second compound 0.0316 µM, first compound 0.00316 µM",80%
same,"viability, T/C","second compound 0.0316 µM, first compound 0.01 µM",93.1%
same,"viability, T/C","second compound 0.0316 µM, first compound 0.0316 µM",87.8%
same,"viability, T/C","second compound 0.0316 µM, first compound 0.1 µM",88.8%
same,"viability, T/C","second compound 0.1 µM, first compound 0.000316 µM",91.4%
same,"viability, T/C","second compound 0.1 µM, first compound 0.001 µM",80.8%
same,"viability, T/C","second compound 0.1 µM, first compound 0.00316 µM",68.5%
same,"viability, T/C","second compound 0.1 µM, first compound 0.01 µM",86.1%
same,"viability, T/C","second compound 0.1 µM, first compound 0.0316 µM",89.6%
same,"viability, T/C","second compound 0.1 µM, first compound 0.1 µM",66.3%
same,"viability, T/C","second compound 0.316 µM, first compound 0.000316 µM",83.8%
same,"viability, T/C","second compound 0.316 µM, first compound 0.001 µM",89.7%
same,"viability, T/C","second compound 0.316 µM, first compound 0.00316 µM",84.4%
same,"viability, T/C","second compound 0.316 µM, first compound 0.01 µM",89%
same,"viability, T/C","second compound 0.316 µM, first compound 0.0316 µM",71%
same,"viability, T/C","second compound 0.316 µM, first compound 0.1 µM",79.7%
same,"viability, T/C","second compound 1 µM, first compound 0.000316 µM",90.1%
same,"viability, T/C","second compound 1 µM, first compound 0.001 µM",77.8%
same,"viability, T/C","second compound 1 µM, first compound 0.00316 µM",76.9%
same,"viability, T/C","second compound 1 µM, first compound 0.01 µM",96.5%
same,"viability, T/C","second compound 1 µM, first compound 0.0316 µM",92.2%
same,"viability, T/C","second compound 1 µM, first compound 0.1 µM",83.8%
NC1CCC(NC2CC2c2ccccc2)CC1 (stereo unspecified) + CCN1C(C(=O)NC23CCC(C(=O)O)(CC2)CC3)C(c2cccc(Cl)c2F)C2(C(=O)Nc3cc(Cl)ccc32)C12CCCCC2,IC50,second compound 0.00949 µM,> 100 nM
same,IC50,second compound 0.03 µM,> 100 nM
same,IC50,second compound 0.0949 µM,> 100 nM
same,IC50,second compound 0.3 µM,> 100 nM
same,IC50,second compound 0.949 µM,> 100 nM
same,IC50,second compound 3 µM,> 100 nM
same,"viability, T/C","second compound 0.00949 µM, first compound 0.000316 µM",112%
same,"viability, T/C","second compound 0.00949 µM, first compound 0.001 µM",104%
same,"viability, T/C","second compound 0.00949 µM, first compound 0.00316 µM",90.5%
same,"viability, T/C","second compound 0.00949 µM, first compound 0.01 µM",105%
same,"viability, T/C","second compound 0.00949 µM, first compound 0.0316 µM",85.3%
same,"viability, T/C","second compound 0.00949 µM, first compound 0.1 µM",108%
same,"viability, T/C","second compound 0.03 µM, first compound 0.000316 µM",111%
same,"viability, T/C","second compound 0.03 µM, first compound 0.001 µM",106%
same,"viability, T/C","second compound 0.03 µM, first compound 0.00316 µM",100%
same,"viability, T/C","second compound 0.03 µM, first compound 0.01 µM",99.6%
same,"viability, T/C","second compound 0.03 µM, first compound 0.0316 µM",105%
same,"viability, T/C","second compound 0.03 µM, first compound 0.1 µM",84.7%
same,"viability, T/C","second compound 0.0949 µM, first compound 0.000316 µM",108%
same,"viability, T/C","second compound 0.0949 µM, first compound 0.001 µM",118%
same,"viability, T/C","second compound 0.0949 µM, first compound 0.00316 µM",120%
same,"viability, T/C","second compound 0.0949 µM, first compound 0.01 µM",127%
same,"viability, T/C","second compound 0.0949 µM, first compound 0.0316 µM",99.6%
same,"viability, T/C","second compound 0.0949 µM, first compound 0.1 µM",99.9%
same,"viability, T/C","second compound 0.3 µM, first compound 0.000316 µM",94.6%
same,"viability, T/C","second compound 0.3 µM, first compound 0.001 µM",108%
same,"viability, T/C","second compound 0.3 µM, first compound 0.00316 µM",111%
same,"viability, T/C","second compound 0.3 µM, first compound 0.01 µM",101%
same,"viability, T/C","second compound 0.3 µM, first compound 0.0316 µM",110%
same,"viability, T/C","second compound 0.3 µM, first compound 0.1 µM",102%
same,"viability, T/C","second compound 0.949 µM, first compound 0.000316 µM",101%
same,"viability, T/C","second compound 0.949 µM, first compound 0.001 µM",125%
same,"viability, T/C","second compound 0.949 µM, first compound 0.00316 µM",114%
same,"viability, T/C","second compound 0.949 µM, first compound 0.01 µM",105%
same,"viability, T/C","second compound 0.949 µM, first compound 0.0316 µM",113%
same,"viability, T/C","second compound 0.949 µM, first compound 0.1 µM",96%
same,"viability, T/C","second compound 3 µM, first compound 0.000316 µM",113%
same,"viability, T/C","second compound 3 µM, first compound 0.001 µM",109%
same,"viability, T/C","second compound 3 µM, first compound 0.00316 µM",128%
same,"viability, T/C","second compound 3 µM, first compound 0.01 µM",104%
same,"viability, T/C","second compound 3 µM, first compound 0.0316 µM",111%
same,"viability, T/C","second compound 3 µM, first compound 0.1 µM",88.7%
NC(=O)C(=Cn1cnc(-c2cc(C(F)(F)F)cc(C(F)(F)F)c2)n1)c1cncnc1 + CNC(C)C(=O)NC1CN(S(=O)(=O)c2cccc(S(=O)(=O)N3CCC4CCC(C(=O)NC(c5ccccc5)c5ccccc5)N4C(=O)C(NC(=O)C(C)NC)C3)c2)CCC2CCC(C(=O)NC(c3ccccc3)c3ccccc3)N2C1=O,IC50,second compound 0.00316 µM,> 300 nM
same,IC50,second compound 0.01 µM,> 300 nM
same,IC50,second compound 0.0316 µM,> 300 nM
same,IC50,second compound 0.1 µM,> 300 nM
same,IC50,second compound 0.316 µM,> 300 nM
same,IC50,second compound 1 µM,> 300 nM
same,"viability, T/C","second compound 0.00316 µM, first compound 0.000949 µM",114%
same,"viability, T/C","second compound 0.00316 µM, first compound 0.003 µM",122%
same,"viability, T/C","second compound 0.00316 µM, first compound 0.00949 µM",119%
same,"viability, T/C","second compound 0.00316 µM, first compound 0.03 µM",104%
same,"viability, T/C","second compound 0.00316 µM, first compound 0.0949 µM",93.9%
same,"viability, T/C","second compound 0.00316 µM, first compound 0.3 µM",66.5%
same,"viability, T/C","second compound 0.01 µM, first compound 0.000949 µM",71%
same,"viability, T/C","second compound 0.01 µM, first compound 0.003 µM",69.2%
same,"viability, T/C","second compound 0.01 µM, first compound 0.00949 µM",59.2%
same,"viability, T/C","second compound 0.01 µM, first compound 0.03 µM",81.7%
same,"viability, T/C","second compound 0.01 µM, first compound 0.0949 µM",83.7%
same,"viability, T/C","second compound 0.01 µM, first compound 0.3 µM",75.5%
same,"viability, T/C","second compound 0.0316 µM, first compound 0.000949 µM",79.5%
same,"viability, T/C","second compound 0.0316 µM, first compound 0.003 µM",59.5%
same,"viability, T/C","second compound 0.0316 µM, first compound 0.00949 µM",63.9%
same,"viability, T/C","second compound 0.0316 µM, first compound 0.03 µM",62.9%
same,"viability, T/C","second compound 0.0316 µM, first compound 0.0949 µM",79.6%
same,"viability, T/C","second compound 0.0316 µM, first compound 0.3 µM",66.6%
same,"viability, T/C","second compound 0.1 µM, first compound 0.000949 µM",65.7%
same,"viability, T/C","second compound 0.1 µM, first compound 0.003 µM",69%
same,"viability, T/C","second compound 0.1 µM, first compound 0.00949 µM",65.2%
same,"viability, T/C","second compound 0.1 µM, first compound 0.03 µM",58.7%
same,"viability, T/C","second compound 0.1 µM, first compound 0.0949 µM",75.2%
same,"viability, T/C","second compound 0.1 µM, first compound 0.3 µM",75.1%
same,"viability, T/C","second compound 0.316 µM, first compound 0.000949 µM",61%
same,"viability, T/C","second compound 0.316 µM, first compound 0.003 µM",69.9%
same,"viability, T/C","second compound 0.316 µM, first compound 0.00949 µM",70.3%
same,"viability, T/C","second compound 0.316 µM, first compound 0.03 µM",71%
same,"viability, T/C","second compound 0.316 µM, first compound 0.0949 µM",68%
same,"viability, T/C","second compound 0.316 µM, first compound 0.3 µM",70.2%
same,"viability, T/C","second compound 1 µM, first compound 0.000949 µM",54.4%
same,"viability, T/C","second compound 1 µM, first compound 0.003 µM",66.9%
same,"viability, T/C","second compound 1 µM, first compound 0.00949 µM",70%
same,"viability, T/C","second compound 1 µM, first compound 0.03 µM",60.6%
same,"viability, T/C","second compound 1 µM, first compound 0.0949 µM",86.1%
same,"viability, T/C","second compound 1 µM, first compound 0.3 µM",62%
